Data set [1] has as its system caterpillars of the armyworm (Spodoptera frugiperda). Nature of the data set: Spodoptera frugiperda test (cabbage leaf dip, kill rate). The data set is classed as in vivo. Conditions: single active compound. The text has this: (§1) The expected action for a given combination of two active compounds can be calculated as follows, according to S. R. Colby, Weeds 15 (1967), 20-22:
(§2) • X is the kill rate, expressed as a percentage of the untreated control, when employing active compound A at an application rate of m g/ha or in a concentration of m ppm, • Y is the kill rate, expressed as a percentage of the untreated control, when employing active compound B at an application rate of n g/ha or in a concentration of n ppm and • E is the kill rate, expressed as a percentage of the untreated control, when employing active compounds A and B at application rates of m and n g/ha or in a concentration of m and n ppm, then
(§3) If the actual insecticidal kill rate exceeds the calculated value, the action of the combination is superadditive, i.e. a synergistic effect is present. In this case, the actually observed kill rate must exceed the value calculated using the above formula for the expected kill rate (E).
Spodoptera frugiperda Test
(§4) To produce a suitable preparation of active compound, 1 part by weight of active compound is mixed with the stated amounts of solvent and emulsifier, and the concentrate is diluted with emulsifier-containing water to the desired concentration.
Cabbage leaves (Brassica oleracea) are treated by being dipped into the preparation of active compound of the desired concentration and are populated with caterpillars of the armyworm (Spodoptera frugiperda) while the leaves are still moist.
(§5) After the desired period of time, the kill in % is determined. 100% means that all caterpillars have been killed; 0% means that none of the caterpillars have been killed. The kill rates determined are calculated using Colby's formula (see page 43).

In data set [2] the test system is caterpillars of the diamond back moth (Plutella xylostella, normally sensitive strain). Nature of the data set: Plutella xylostella test (normally sensitive strain; cabbage leaf dip, kill rate). The data set is classed as in vivo. To be noted: single active compound.
Text: as §1, §2, §3
Plutella xylostella Test (Normally Sensitive Strain)
as §4
Cabbage leaves (Brassica oleracea) are treated by being dipped into the preparation of active compound of the desired concentration and are populated with larvae of caterpillars of the diamond back moth (Plutella xylostella, normally sensitive strain) while the leaves are still moist.
After the desired period of time, the kill in % is determined. 100% means that all caterpillars have been killed; 0% means that none of the caterpillars have been killed. The kill rates determined are calculated using Colby's formula (see sheet 1).

The test system of data set [3] is larvae of the mustard beetle (Phaedon cochleariae). As to the kind of experiment: Phaedon cochleariae larvae test (cabbage leaf dip, kill rate). The data set is classed as in vivo. Conditions: single active compound.
Text: as §1, §2, §3
Phaedon cochleariae Larvae Test
(§6) To produce a suitable preparation of active compound, 1 part by weight of active compound is mixed with the stated amounts of solvent and emulsifier, and the concentrate is diluted with emulsifier-containing water to the desired concentration. […]
(§7) After the desired period of time, the kill in % is determined. […] The kill rates determined are calculated using Colby's formula (see page 43).

The subject of data set [4] is green peach aphid (Myzus persicae). Nature of the data set: Myzus persicae test (infested cabbage leaf dip, kill rate). The data set is classed as in vivo. Conditions: single active compound, 0.8 ppm.
Text: as §1, §2, §3, §6, §7

Data set [5] has as its system caterpillars of the cotton boll worm (Heliothis armigera). Nature of the data set: Heliothis armigera test (cabbage leaf dip, kill rate). The format is in vivo. Conditions: single active compound.
Text: as §1, §2, §3, §4
Cabbage leaves (Brassica oleracea) are treated by being dipped into the preparation of active compound of the desired concentration and are populated with caterpillars of the cotton boll worm (Heliothis armigera) while the leaves are still moist.
as §5

Results on 16 compounds are retold here after patent US8993483B2, “Combination of active substances with insecticidal properties” (Bayer Intellectual Property GmbH, priority 2003, dated 2015).

Structures are written as SMILES.

`CCNC(=O)c1cc(Cl)cc(C)c1NC(=O)c1cc(OCC(F)(F)F)nn1-c1ncccc1Cl` showed a melting point of 205 to 207 °C.
`CCNC(=O)c1cc(Cl)cc(C)c1NC(=O)c1cc(Cl)nn1-c1ncccc1Cl`: the melting point was 199 to 200 °C.
For the compound `CC(C)(C)NC(=O)c1cc(Cl)cc(Cl)c1NC(=O)c1cc(Cl)nn1-c1ncccc1Cl`, the melting point is 172 to 173 °C.
Compound `CCNC(=O)c1cc(Br)cc(C)c1NC(=O)c1cc(C(F)(F)F)nn1-c1ncccc1Cl` showed a melting point of 192 to 193 °C.
`Cc1cc(Br)cc(C(=O)NC(C)C)c1NC(=O)c1cc(C(F)(F)F)nn1-c1ncccc1Cl` displayed a melting point of 197 to 198 °C.
In turn, `Cc1cc(Br)cc(C(=O)NC(C)(C)C)c1NC(=O)c1cc(C(F)(F)F)nn1-c1ncccc1Cl` yielded a melting point of 247 to 248 °C.
The compound `Cc1cc(I)cc(C(=O)NC(C)(C)C)c1NC(=O)c1cc(C(F)(F)F)nn1-c1ncccc1Cl` came in with a melting point of 242 to 243 °C.
The compound `CC(C)NC(=O)c1cc(Br)cc(Br)c1NC(=O)c1cc(Cl)nn1-c1ncccc1Cl` returned a melting point of 197 to 199 °C.
Compound `CCNC(=O)c1cc(Br)cc(Br)c1NC(=O)c1cc(Br)nn1-c1ncccc1Cl` gave a melting point of 196 to 197 °C.
Same read-out and setting: to `CN(C)C(=O)c1cc(Br)cc(Br)c1NC(=O)c1cc(Cl)nn1-c1ncccc1Cl` belongs 153 to 155 °C; to `CN(C)C(=O)c1cc(Cl)cc(Cl)c1NC(=O)c1cc(Br)nn1-c1ncccc1Cl`, 216 to 218 °C.
Compound `CNC(=O)c1cc(Cl)cc(Cl)c1NC(=O)c1cc(Cl)nn1-c1ncccc1Cl` registered a melting point of 205 to 206 °C.
`Cc1cc(Cl)cc(C(=O)NC(C)C)c1NC(=O)c1cc(C(F)(F)F)nn1-c1ncccc1Cl` [II-1-9]: the “Kill rate in % after 6 d, found” value is 0% in data set [1] (0.0064 ppm); 20% in data set [2] (0.0064 ppm); 0% in data set [3] (0.0064 ppm); 0% in data set [4]; 0% in data set [5] (0.0064 ppm).
Turning to `O=[N+]([O-])/N=C1\NCCN1Cc1ccc(Cl)nc1` [Ia, imidacloprid], the “Kill rate in % after 6 d, found” value in data set [1] (4 ppm) amounted to 0%; in data set [2] (4 ppm) it was 0%; in data set [3] (4 ppm), 20%; in data set [5] (4 ppm), 0%.
`N#C/N=C1\SCCN1Cc1ccc(Cl)nc1` [Ik, thiacloprid]: the “Kill rate in % after 6 d, found” value in data set [1] (4 ppm) is reported as 0%; in data set [2] (4 ppm) it was 0%; in data set [5] (4 ppm), 25%.
As to `CN/C(=N\[N+](=O)[O-])NCc1cnc(Cl)s1` [Im, clothianidin], the results for the “Kill rate in % after 6 d, found” value in data set [2] (4 ppm), in data set [4] and in data set [5] (4 ppm) were 0%, 30% and 40%, respectively.

Usually melting point stands for the temperature, or range, at which the solid turns liquid.
